Earlier results on one compound are cited in patent US20050148034A1, “Methods for identification of modulators of angiogenesis, compounds discovered thereby, and methods of treatment using the compounds” (priority 2002, published 2005).

The series concerns human umbilical cord blood vessel rings. The following applies: 10^−5 M, compared with the DMSO (0.5%) diluent control; cited from earlier work.

Turning to `C[C@]12CCC(=O)C=C1CC[C@@H]1[C@@H]2[C@@H](O)C[C@@]2(C)[C@H]1CC[C@]2(O)C(=O)CO` [hydrocortisone], the inhibition of angiogenesis result was “partially inhibited angiogenesis”.
